Several values for one entry are separate records, joined by “and”; a condition that tells them apart may be missing. Equal values may be shown once. Entries after “also recorded” stand apart in the source; their conditions may differ.
Columns and labels:
CCND2 promoter = assay: CCND2 promoter-luciferase transactivation assay in NIH3T3 cells with or without c-maf; type: cell-based, mouse
Protocol: Using this assay, Lopac (n=1280), Prestwick (n=1120), and Spectrum (n=2000) libraries of drugs and natural compounds were screened. In a parallel MTS assay, the effect of each compound on 3T3 viability was determined, allowing exclusion of compounds that caused secondary suppression of CCND2 due to non-specific cytotoxicity. […] These included monensin, patulin, β-lapachone, camptothecin, dihydrogambogic acid, gentian violet, thapsigargin, brefeldin A, pristimerin, and kinetin riboside.
Full-length c-maf cDNA was subcloned into an IRES-GFP MIEV retroviral vector and introduced into NIH3T3 cells by infection. Stable clones expressing GFP and c-maf were selected by flow cytometry and immunoblotting, respectively. The promoter of human cyclin D2 (−894 to −4; Brooks et al., J. Biol. Chem., 271, 9090-9 (1996)), containing c-maf responsive element sequence (MARE), was cloned from DNA from HeLa cells and inserted into the pGLbasic firefly luciferase vector (Promega, Madison, Wis.) immediately upstream of the luciferase gene. This construct was co-transfected with pcDNA3 (containing a neomycin resistance gene) into both NIH3T3 wild type cells and NIH3T3 cells stably over-expressing c-maf-IRES-GFP. Cells stably expressing c-maf, GFP, and luciferase were selected.
NIH3T3 cells stably expressing c-maf and the CCND2 promoter driving luciferase (13,000 cells per well) were plated in 96-well plates by a Biomek FX liquid handler (Beckman, Fullerton, Calif.). After the cells had adhered, they were treated with aliquots of molecules from LOPAC (Sigma, St. Louis, Mo.), Prestwick (Prestwick Chemical Inc, Illkirch, France) or Spectrum (Microsource Discovery Systems, Gaylordsville, Conn.) libraries of off-patent drugs and chemicals at a final concentration of ˜5 μM and <0.1% DMSO. Cells were incubated with compounds at 37° C. for 16 hours.
Luciferase assay. Luciferase activity was assessed according to the manufacturer's instructions (Promega, Madison, Wis.). Briefly, the cell culture medium was removed using an EMBLA plate washer (Molecular Devices, X) and Glo Lysis buffer (Promega) was added by robot. After a 10-minute incubation, an equal volume of Bright-Glo Luciferase substrate (Promega) was added, and luminescence signal was detected with a 96-well Luminoskan luminescence plate reader (Thermo Labsystem, Waltham, Mass.) using a 5 second integration.
Studies of kinetin riboside using 3T3-D2-luc cells. To examine CCND2 suppression induced by kinetin riboside, the reporter cells were exposed to kinetin riboside in combination with other drugs (all purchased from Sigma, St. Loius, Mo.) that influence CCND2 transcription or inhibit nucleoside transport or phosphorylation. NIH3T3 cells expressing the CCND2 promoter driving luciferase were incubated with kinetin riboside or vehicle control +/− forskolin, 4-(3-butoxy-4-methoxybenzyl)imidazolidin-2-one (BMBI), cantharadin, S-(4-Nitrobenzyl)-6-thioinosine (NBTI), or A-134974, as specified at 5 μM concentration for 16 hours at 37° C. […] Forskolin is a cell-permeable diterpenoid that activates adenylate cyclase resulting in increased cAMP concentration. BMBI (Sigma B8279) is an inhibitor of cAMP phosphodiesterase that also causes accumulation of cAMP. Cantharadin (C7632) is an inhibitor of protein phosphatase 2A and, from the library screen, mediates induction of CCND2. NBTI (Sigma N2255) is a potent adenosine uptake inhibitor, and A-134974 (Sigma A2846) is a selective inhibitor of adenosine kinase.
In an optimized automated assay, NIH3T3 cells over-expressing c-maf and the human cyclin D2 promoter driving luc were plated in 96-well plates by robot and following adhesion were treated for 16 hours with compounds at a final concentration of ˜5 μM and <0.1% DMSO. As a control, cells were treated with buffer alone. […] Thus, each compound from the library was tested in at least two assays—luciferase for CCND2 activity and MTS for viability. The coefficient of variance (CV) of the assay was <10%.

HMCL = assay: Cell cycle profiling of HMCL by flow cytometry; type: cell-based, human
Protocol: Cell cycle profiling. HMCL were incubated with drug or vehicle as indicated, washed and resuspended in 1 mL PBS. Ice cold ethanol was added dropwise to 75% with regular mixing, and suspensions were incubated at −20° C. for 1 hour. Cells were washed again with PBS and resuspended in 0.1 mL RNAse A (100 μg/mL) at room temperature for 5-10 minutes. Propidium iodide (200 μL×100 μg/mL) was added immediately prior to analysis by flow cytometry. Cellular aggregates were excluded using CellQuest Doublet Discriminator Module, and cell cycle profile was determined using ModFit LT Mac 3.1 SP2 (Verity Software House, TopSham, Me.).

[1] = tested on: human myeloma cell lines (HMCL); assay: HMCL viability / cytotoxicity (MTT, MTS); type: cell-based; conditions: for IC50: Homo sapiens
Protocol: Subsequent validation studies using selected compounds in human myeloma cell lines (HMCL) confirmed successful suppression of both cyclin D2 and D1 polypeptides. Each of these compounds was then shown to be cytotoxic to a genetically diverse and standardized panel of 14 HMCL in MTT assays: monensin (10-760 nM), camptothecin (5-700 nM), dihydrogambogic acid (250-800 nM), pristimerin (150-500 nM), and kinetin riboside (2.5-20 μM). Cell cycle analysis confirmed induction of G0/G1 phase arrest for most compounds, consistent with cyclin D inhibition.
Viability assay. The effects of screened compounds on cell viability was assessed by 3-(4,5-dimethyl[…])-5-(3-carboxymethoxyphenyl)-2-(4-sulfophenyl)-2-H-tetrazolium (MTS) assay according to the manufacture's instructions (Progmega, Madison, Wis.). MTS reagent (20 μL/well in 96 well plates) was added to cells, and these were then incubated at 37° C. for 4 hours. Absorbance at 490 nm was determined using a 96-well plate reader.

## OC[C@H]1O[C@@H](n2cnc3c(NCc4ccco4)ncnc32)[C@H](O)[C@@H]1O [kinetin riboside, N6-Furfuryladenosine]
CCND2 promoter; NIH3T3
  time course of suppression of CCND2-driven luciferase: rapid suppression of CCND2 transactivation
CCND2 promoter; NIH3T3 CCND2-luc with or without c-maf
  suppression of CCND2 promoter in absence or presence of c-maf: c-maf independent specific suppression of the CCND2 promoter
CCND2 promoter; co-incubation, 5 μM, 16 hours
  effect on BMBI-induced CCND2 transactivation: effectively blocked
  effect on Forskolin-induced CCND2 transactivation: blocked
  effect on cantharadin-induced CCND2 transactivation: abolished
CCND2 promoter; ~5 μM, 16 hours, hit = 50% or more reduction in luciferase relative to cell viability
  identified as putative inhibitor of CCND2 transactivation (screen hit): putative CCND2 inhibitors; also recorded: putative suppressors of CCND2
HMCL; H929 and U266, 10 μM, 20 hours
  cell cycle profile: cell cycle arrest at G0/G1
HMCL; all HMCL tested, 10 μM, within 20 hours
  fall in proportion of cells entering S-phase: 50-70%
[1]; 48 h, 8 out of 12 HMCL
  IC50: < 1.7 µg/mL and < 5 µM
[1]; 48 h, 11/12 HMCL
  IC50: < 5 µg/mL and < 15 µM
[1]; JJN-3, JJN3
  IC50: ~5 µM
[1]; U-266, U266
  IC50: > 20 µM
[1]; human
  cytotoxic concentration across panel of 14 HMCL: 2.5 to 20 µM
